Source: US11701345B2, “Car activator agents for cyclophosphamide-based treatments of cancer” (UNIVERSITY OF MARYLAND, BALTIMORE, priority 2017, dated 2023)
Entries after “also recorded” stand apart in the source; their conditions may differ.

Tests used:
SU-DHL-4 cells = assay: Hepatocyte/lymphoma co-culture with CHOP: cancer cell death, viability, caspase-3; type: cell-based, human
Description: HPH were cultured in collagen-coated 12-well plates and pretreated with vehicle control (0.1% DMSO) or hCAR activator (1 mmol/L) for 24 hours. The wells were then separated with […] polycarbonate membrane inserts (Sigma-Aldrich). A total of 0.5×10^6 SU-DHL-4 cells suspended in supplemented Williams' Medium E were transferred into the insert chamber with a final volume of 2 mL/well. In separate coculture experiments, HPH were replaced with either WT or CAR-KO HepaRG cells. The cocultures were exposed to designated concentrations of the chemotherapy drugs in CHOP in the presence or absence of hCAR activator for various time intervals, as indicated.
(§1) Homogenate proteins from treated HPH, H9c2 or HepaRG cells were resolved on NuPAGE Novex Bis-Tris 4% to 12% gels (Life Technologies) and electrophoretically transferred onto immobilon-P polyvinylidene difluoride membranes. Membranes were incubated with specific antibodies against human CAR (Perseus Proteomics), cleaved caspase-3 (Cell Signaling Technology), or g-H2AX (Millipore), diluted 1:1,000, 1:1,000, and 1:400, respectively. b-Actin was used to normalize protein loading. Following incubation with horseradish peroxidase goat antimouse or anti-rabbit IgG antibody, membranes were developed using SuperSignal West Pico Chemiluminescent Substrate (Thermo Scientific). Western blot signals were quantified by densitometry using ImageJ software from the National Institutes of Health.
HPHs and H9c2 rat cardiomyocytes were seeded at 7.5×10^4 cells per well in 96-well plates. HPH were cultured for 24 hours before treatment with hCAR activator (1 mmol/L) or vehicle control (0.1% DMSO), followed by treatment with the chemotherapy drugs included in CHOP at a range of concentrations. Culture medium containing CHOP drugs and metabolites was exchanged between the cell types at pre-determined time points. A typical 3-[4,5-dimethylthiazol-2-yl]-2,5 diphenyl tetrazolium bromide (MTT) assay was carried out as described previously (21). Cell viability was expressed as the percentage of vehicle control (0.1% DMSO). Cocultured cells were assembled and treated as described above. The viability of the SU-DHL-4 cells was determined at selected time points with a Cellometer Auto T4 (Nexcelom Biosciences) using trypan blue exclusion.

H9c2 cells = assay: CHOP cytotoxicity in side-toxic H9c2 cells; type: cell-based, rat; conditions: FIGS. 10A-10C, 11A-11F
Description: as §1
HPHs and H9c2 rat cardiomyocytes were seeded at 7.5×10^4 cells per well in 96-well plates. […] Culture medium containing CHOP drugs and metabolites was exchanged between the cell types at pre-determined time points. […] Cell viability was expressed as the percentage of vehicle control (0.1% DMSO). […] The viability of the SU-DHL-4 cells was determined at selected time points with a Cellometer Auto T4 (Nexcelom Biosciences) using trypan blue exclusion.

EL4-derived xenograft = EL4-derived xenograft in hCAR transgenic mice treated with CHOP; type: in vivo, mouse; conditions: hCAR-TG mice, compared with vehicle, CITCO and CHOP controls; FIGS. 13-14
Description: The effects of the novel hCAR activator e.g. CITCO on the CHOP based anticancer therapy has been examined in EL4-derived xenograft hCAR transgenic mouse model (FIG. 12). The tumor volume reduction was measured to determine the effects of hCAR activator on the CHOP treatment upon xenograft tumor model in mouse.

Clc1ccc(-c2nc3sccn3c2/C=N/OCc2ccc(Cl)c(Cl)c2)cc1 [CITCO, (E)-6-(4-chlorophenyl)imidazo[2,1-b]thiazole-5-carbaldehyde O-(3,4-dichlorobenzyl) oxime]
effect on CHOP anticancer activity (cancer cell death) (SU-DHL-4 cells; hepatocyte/lymphoma co-culture, added to CHOP, FIGS. 10B-C): enhances CHOP-mediated cytoxicity; also recorded: potentiates the beneficial effects of CHOP in causing cancer cell death | Caspase-3 expression on addition to CHOP (SU-DHL-4 cells; lymphoma cells, FIGS. 11A-11F): induction of apoptosis protein caspase-3; also recorded: dose dependent response of Caspase-3 expression | effect on CHOP-mediated cytotoxicity in H9c2 cells (H9c2 cells): not H9c2 cells | effect on therapeutic effects of CHOP (tumor volume, tumor mass) (EL4-derived xenograft): potentiate the therapeutic effects of the CHOP regimen
